Data on one compound can be found in patent US12479866B2, “Boron-containing rho kinase inhibitors” (Percipiad, Inc., priority 2019, dated 2025).

What all share (type): biochemical
Assay [1] addresses T1, ROCK2 (Homo sapiens (Human), UniProt O75116). Description: ROCK2 ADP-Glo kinase enzyme inhibition assay. On the procedure:
(§1) We measured ROCK and PKA kinase enzyme activity inhibition by compounds using commercially available ROCK1 (Promega Corporation, cat #V9581), ROCK2 (Promega, cat #V4045), and PKA kinase (Promega, cat #V4247) ADP-Glo™ assay kits. ADP-Glo™ Kinase Assay is a luminescent ADP detection assay that provides a homogeneous method to measure kinase activity by quantifying the amount of ADP produced during a kinase reaction. The assay is performed in two steps. First, after the kinase reaction, an equal volume of ADP-Glo™ Reagent is added to terminate the kinase reaction and deplete the remaining ATP. Second, the Kinase Detection Reagent is added to simultaneously convert ADP to ATP and allow the newly synthesized ATP to be measured using a luciferase/luciferin reaction. The light generated is measured using a luminometer. A complete protocol is included with the kits and is also available at the Promega website. The assay is briefly described below. • 1. Diluted enzyme, substrate, ATP, and compounds (inhibitors) in Kinase Buffer (40 mM Tris, 7.5, 20 mM MgCl2, 0.1 mg/ml BSA, 50 μM DTT). • 2. Added 1 μl of inhibitor, 2 μl of enzyme and 2 μl of substrate/ATP mix to the wells of 384-well low volume nonbinding assay plate A series of three-fold dilution of inhibitor was prepared and assayed for each inhibitor. • 3. Incubated at room temperature for 60 minutes. • 4. Added 5 μl of ADP-Glo™ Reagent. • 5. Incubated at room temperature for 60 minutes. • 6. Added 10 μl of Kinase Detection Reagent • 7. Incubated at room temperature for 30 minutes.
(§2) Recorded luminescence (Integration time 1 second) using a plate-based luminometer.
Calculated Percent Enzyme Activity: First subtract the signal of the negative control (no enzyme and no inhibitor) from each sample's signal. Then use the mean relative light units (RLU) values for the 0% kinase activity (neither inhibitor nor enzyme) and the 100% kinase activity (no compound) to calculate the other percent enzyme activities remaining in the presence of the different dilutions of inhibitor.
Inhibitor stock solutions of 10 mM are made in DMSO and stored at −20° C. Dilutions were made in assay buffer immediately before use.
Target sequence in this assay (O75116 whole entry): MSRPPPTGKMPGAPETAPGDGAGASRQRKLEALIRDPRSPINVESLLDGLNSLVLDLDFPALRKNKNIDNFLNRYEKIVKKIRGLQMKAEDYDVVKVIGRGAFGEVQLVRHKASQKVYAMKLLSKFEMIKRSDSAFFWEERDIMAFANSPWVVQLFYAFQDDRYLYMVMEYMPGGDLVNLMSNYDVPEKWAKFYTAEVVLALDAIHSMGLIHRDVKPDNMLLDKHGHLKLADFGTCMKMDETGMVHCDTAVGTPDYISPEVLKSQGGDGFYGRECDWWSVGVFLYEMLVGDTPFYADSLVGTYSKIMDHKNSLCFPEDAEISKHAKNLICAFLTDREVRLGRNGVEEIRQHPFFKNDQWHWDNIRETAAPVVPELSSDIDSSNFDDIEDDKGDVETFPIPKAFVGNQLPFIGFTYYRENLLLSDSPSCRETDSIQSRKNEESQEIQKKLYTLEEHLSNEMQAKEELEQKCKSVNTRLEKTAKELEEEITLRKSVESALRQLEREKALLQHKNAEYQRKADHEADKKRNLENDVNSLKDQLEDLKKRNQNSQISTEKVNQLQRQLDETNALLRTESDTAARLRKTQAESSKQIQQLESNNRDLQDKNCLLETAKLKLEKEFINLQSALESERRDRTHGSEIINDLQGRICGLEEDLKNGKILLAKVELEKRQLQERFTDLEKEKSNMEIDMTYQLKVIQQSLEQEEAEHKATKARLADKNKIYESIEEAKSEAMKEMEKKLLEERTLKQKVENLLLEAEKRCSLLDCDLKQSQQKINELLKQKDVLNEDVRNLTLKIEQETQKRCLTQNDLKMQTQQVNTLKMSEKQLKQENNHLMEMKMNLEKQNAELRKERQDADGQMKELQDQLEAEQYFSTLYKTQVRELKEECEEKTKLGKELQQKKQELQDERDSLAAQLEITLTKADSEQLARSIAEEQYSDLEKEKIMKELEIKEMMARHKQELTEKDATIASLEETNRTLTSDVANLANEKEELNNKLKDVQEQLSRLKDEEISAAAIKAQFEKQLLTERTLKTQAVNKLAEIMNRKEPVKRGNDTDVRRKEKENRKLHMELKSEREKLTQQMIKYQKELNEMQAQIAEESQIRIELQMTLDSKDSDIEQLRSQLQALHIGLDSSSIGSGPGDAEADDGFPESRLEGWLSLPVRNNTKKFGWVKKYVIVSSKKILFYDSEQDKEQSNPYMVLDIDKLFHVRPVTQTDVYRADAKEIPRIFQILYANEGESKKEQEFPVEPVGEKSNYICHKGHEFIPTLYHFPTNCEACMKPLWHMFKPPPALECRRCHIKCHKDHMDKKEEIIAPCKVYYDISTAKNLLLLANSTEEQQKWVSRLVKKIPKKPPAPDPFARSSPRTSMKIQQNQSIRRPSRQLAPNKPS

Assay [2] concerns the target T2, PKA (Homo sapiens (Human), UniProt P17612). Description: PKA ADP-Glo kinase enzyme inhibition assay. As to conditions: read-out: PKAIC50. On the procedure:
as §1, with “Added 1 μl of inhibitor, 2 μl of enzyme and 2 μl of substrate/ATP mix to the wells of 384-well low volume nonbinding assay plate A series of three-fold dilution of inhibitor was prepared and assayed for each inhibitor. • 3. Incubated at room temperature for 60 minutes. • 4. Added 5 μl of ADP-Glo™ Reagent. • 5. Incubated at room temperature for 60 minutes. • 6. Added 10 μl of Kinase Detection Reagent • 7. Incubated at room temperature for 30 minutes.” left out
as §2
Calculated Percent Enzyme Activity: First subtract the signal of the negative control (no enzyme and no inhibitor) from each sample's signal. […]

In another assay the target is MRCKa (Homo sapiens (Human), UniProt Q5VT25). Kind of assay: Radioisotope filter binding kinase assay. The conditions noted are these: 10 uM ATP, read-out: IC50 estimates, MRCKa. Here is the method: (§3) Experiment was conducted by Absorption Systems. […] The radioisotope filter binding assay is considered the gold standard for kinase profiling. The assay directly detects the true product without the use of modified substrates, coupling enzymes, or detection antibodies. Compounds are incubated with kinase, substrate, cofactors, and radioisotope-labeled ATP (^33P-Y-ATP). The reaction mixtures are then spotted onto filter papers, which bind the radioisotope-labeled catalytic product. Unreacted phosphate is removed via washing of the filter papers.
(§4) • Prepare kinase-specific substrate in freshly prepared Base Reaction Buffer (20 mM Hepes (pH 7.5), 10 mM MgCl2, 1 mM EGTA, 0.02% Brij35, 0.02 mg/ml BSA, 0.1 mM Na3VO4, 2 mM DTT, 10 µM ATP, and 1% DMSO). • Add kinase enzyme into the substrate solution and gently mix. • Add compounds in DMSO into the kinase reaction mixture by Acoustic technology (Echo550; nanoliter range), incubate for 20 minutes at room temperature. • Add ^33P-ATP (specific activity 10 μCi/μl)) into the reaction mixture to initiate the reaction. • Incubate kinase reaction for 2 hours at room temperature. • Spot reactions onto P81 ion exchange paper. • Detect kinase activity by filter-binding method.

Assay [3] has as its target T2, PKA. Description: Radioisotope filter binding kinase assay. The conditions noted are these: 10 uM ATP, read-out: IC50 estimates, PKA. Here is the method: as §3, §4
The target in another assay is PKCtheta (Homo sapiens (Human), UniProt Q04759). Description: Radioisotope filter binding kinase assay. As to conditions: 10 uM ATP, read-out: IC50 estimates, PKCtheta. Here is the method: as §3, §4
Sequence of PKCtheta (Q04759 whole entry): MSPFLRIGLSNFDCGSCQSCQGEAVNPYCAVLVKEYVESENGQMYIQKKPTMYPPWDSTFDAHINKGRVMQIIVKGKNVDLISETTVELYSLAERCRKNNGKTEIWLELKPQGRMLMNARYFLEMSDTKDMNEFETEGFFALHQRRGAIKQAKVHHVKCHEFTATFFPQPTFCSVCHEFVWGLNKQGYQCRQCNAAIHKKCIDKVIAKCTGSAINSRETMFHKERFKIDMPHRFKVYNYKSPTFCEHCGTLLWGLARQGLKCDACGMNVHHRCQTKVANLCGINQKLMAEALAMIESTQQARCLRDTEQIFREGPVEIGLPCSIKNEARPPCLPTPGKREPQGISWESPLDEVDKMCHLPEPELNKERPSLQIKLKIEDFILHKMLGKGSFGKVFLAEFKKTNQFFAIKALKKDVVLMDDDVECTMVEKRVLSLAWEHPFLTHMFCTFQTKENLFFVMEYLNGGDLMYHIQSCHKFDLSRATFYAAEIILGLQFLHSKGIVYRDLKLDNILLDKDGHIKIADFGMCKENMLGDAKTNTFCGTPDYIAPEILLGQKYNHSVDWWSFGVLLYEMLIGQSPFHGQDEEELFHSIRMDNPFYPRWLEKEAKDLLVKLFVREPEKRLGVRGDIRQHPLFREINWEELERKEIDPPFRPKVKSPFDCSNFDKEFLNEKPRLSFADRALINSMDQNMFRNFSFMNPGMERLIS
The target of a further assay is ROCK1 (Homo sapiens (Human), UniProt Q13464). Kind of assay: Radioisotope filter binding kinase assay. As to conditions: 10 uM ATP, read-out: IC50 estimates, ROCK1. Here is the method:
as §3, §4

Assay [4] has as its target T1, ROCK2. Kind of assay: Radioisotope filter binding kinase assay. The conditions noted are these: 10 uM ATP, read-out: IC50 estimates, ROCK2. On the procedure: as §3, §4
Target sequence in this assay (O75116 whole entry, species assumed): as the sequence (O75116 whole entry) above

Sequence of ROCK1 (Q13464 whole entry, species assumed): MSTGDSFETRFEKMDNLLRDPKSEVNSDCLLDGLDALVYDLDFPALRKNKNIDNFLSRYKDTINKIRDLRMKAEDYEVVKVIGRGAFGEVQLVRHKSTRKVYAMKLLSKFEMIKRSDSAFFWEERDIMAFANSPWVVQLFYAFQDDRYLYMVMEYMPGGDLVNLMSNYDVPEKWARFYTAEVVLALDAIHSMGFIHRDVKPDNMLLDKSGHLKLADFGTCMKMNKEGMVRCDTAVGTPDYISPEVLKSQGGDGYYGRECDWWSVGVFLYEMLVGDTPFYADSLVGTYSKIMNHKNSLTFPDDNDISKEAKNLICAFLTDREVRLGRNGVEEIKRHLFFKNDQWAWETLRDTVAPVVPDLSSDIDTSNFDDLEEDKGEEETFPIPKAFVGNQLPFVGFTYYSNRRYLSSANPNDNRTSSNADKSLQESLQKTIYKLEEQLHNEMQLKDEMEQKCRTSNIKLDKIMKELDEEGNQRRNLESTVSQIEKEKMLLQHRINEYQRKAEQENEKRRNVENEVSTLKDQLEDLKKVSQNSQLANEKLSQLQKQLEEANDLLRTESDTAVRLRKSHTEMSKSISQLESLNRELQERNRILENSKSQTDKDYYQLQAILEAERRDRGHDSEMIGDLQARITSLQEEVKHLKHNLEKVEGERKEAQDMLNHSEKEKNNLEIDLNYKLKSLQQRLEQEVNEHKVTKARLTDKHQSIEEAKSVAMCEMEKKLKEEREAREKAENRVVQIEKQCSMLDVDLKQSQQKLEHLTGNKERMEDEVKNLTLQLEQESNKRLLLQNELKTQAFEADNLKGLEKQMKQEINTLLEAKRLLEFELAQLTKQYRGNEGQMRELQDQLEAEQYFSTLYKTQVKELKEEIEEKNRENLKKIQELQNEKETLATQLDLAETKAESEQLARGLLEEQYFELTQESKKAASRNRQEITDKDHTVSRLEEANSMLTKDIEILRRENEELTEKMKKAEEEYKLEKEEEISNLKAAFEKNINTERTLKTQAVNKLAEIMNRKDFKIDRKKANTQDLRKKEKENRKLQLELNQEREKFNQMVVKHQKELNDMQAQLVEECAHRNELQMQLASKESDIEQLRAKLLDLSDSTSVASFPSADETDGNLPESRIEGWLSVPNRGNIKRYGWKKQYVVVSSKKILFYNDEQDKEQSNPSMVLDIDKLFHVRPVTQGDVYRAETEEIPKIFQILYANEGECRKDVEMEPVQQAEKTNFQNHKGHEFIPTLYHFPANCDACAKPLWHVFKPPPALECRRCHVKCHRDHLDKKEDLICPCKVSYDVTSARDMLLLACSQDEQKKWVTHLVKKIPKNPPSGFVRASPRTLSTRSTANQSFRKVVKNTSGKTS

For the compound `NCC(C(=O)Nc1ccc2cnccc2c1)c1ccc(CO)cc1` (racemic) [Netarsudil-M1-racemate•2HCl, Netarsdil-M1-(racemic), reference compound], the IC50 was 66 nM on ROCK2 [1] (Exp #2, read-out: ROCK2 IC50(Exp #2)); 15 nM at ROCK2 [1] (Exp #3, read-out: ROCK2 IC50(Exp #3)); 23 nM at PKA [2]; more than 10 µM at MRCKa; 12 nM at PKA [3]; 5.13 µM at PKCtheta. Besides, the figures for the IC50 at ROCK1 and on ROCK2 [4] were 15 nM and 6 nM, respectively.
